The values that follow come from US10414769B2, “5,8-dimethyl-9-phenyl-5,8-dihydro-6H-pyrazolo[3,4-h]quinazolin-2-yl)-(1H-pyrazol-3-yl)-amines as IGF-1R/IR inhibitors” (Boehringer Ingelheim International GmbH, priority 2015, dated 2019).

SMILES strings stand for the structures. Some results are limits rather than exact numbers.

For orientation: EC50 means the concentration at which the effect is half-maximal. Low values mean higher potency in that assay, high ones lower potency in that assay.

One assay has as its target T1, EGFR (ErbB1) (Homo sapiens, UniProt P00533).
T1 construct: purchased Life Technologies PV 3872
Description: Z'-LYTE kinase selectivity assay EGFR. The assay is classed as biochemical. An excerpt:
(§1) In order to compare the kinase selectivity of compounds (I) according to the invention with known prior art compounds the commercially provided SelectScreen® Kinase Profiling Service (Z′-LYTE®) was used (Life Technologies GmbH, Darmstadt, Germany) to investigate the ability of the compounds to inhibit a number of different, representatively selected human kinases. Further details regarding this service are available on the Life Technologies website at
(§2) The Z′-LYTE® biochemical assay employs a fluorescence-based, coupled-enzyme format and is based on the differential sensitivity of phosphorylated and non-phosphorylated peptides to proteolytic cleavage. The peptide substrate is labeled with two fluorophores—one at each end—that make up a FRET pair.
(§3) In the primary reaction, the kinase transfers the gamma-phosphate of ATP to a single tyrosine, serine or threonine residue in a synthetic FRET-peptide. In the secondary reaction, a site-specific protease recognizes and cleaves non-phosphorylated FRET-peptides. Phosphorylation of FRET-peptides suppresses cleavage by the Development Reagent. Cleavage disrupts FRET between the donor (i.e., coumarin) and acceptor (i.e., fluorescein) fluorophores on the FRET-peptide, whereas uncleaved, phosphorylated FRET-peptides maintain FRET. A ratiometric method, which calculates the ratio (the Emission Ratio) of donor emission to acceptor emission after excitation of the donor fluorophore at 400 nm, is used to quantitate reaction progress, as shown in the equation below.
(§4) The Test Compounds are screened at 1 μM.
The 2×EGFR (ErbB1) (# PV 3872)/Tyr 04 (Z′-LYTE® Kinase Assay Kit—Tyrosine 4 Peptide, # PV 3193) mixture is prepared in 50 mM HEPES pH 7.5, 0.01% BRIJ-35, 10 mM MgCl2, 4 mM MnCl2, 1 mM EGTA, 2 mM DTT. The final 10 μL Kinase Reaction consists of 1.1-8 ng EGFR (ErbB1) and 2 μM Tyr 04 in 50 mM HEPES pH 7.5, 0.01% BRIJ-35, 10 mM MgCl2, 2 mM MnCl2, 1 mM EGTA, 1 mM DTT. After the 1 hour Kinase Reaction incubation, 5 μL of a 1:64 dilution of Development Reagent B is added.

The subject of assay [1] is HCT 116 (colorectal carcinoma) cells. Description: Cell proliferation assay HCT 116 (Alamar Blue). It counts as cell-based. Conditions: Homo sapiens; anti-proliferative effect, HCT 116 cells (negative control line), 72 h. How it is done: Cell Proliferation Assays
Compounds were tested for their anti-proliferative effects in the TC-71 (EWING'S sarcoma) and HCT 116 (colorectal carcinoma) cancer cell lines in vitro. Published scientific data has described that interference with the IGF-1R signaling pathway reduces the proliferation of TC-71 cells (Manara et al, 2007). Therefore TC-71 cells served as a positive control cell line for monitoring the activity of compounds against IGF-1R-mediated cell proliferation. […] Therefore the HCT 116 cell line served as a negative control.
2000 TC-71 cells or 1000 HCT 116 cells were seeded per well in 180 μL IMDM+10% foetal calf serum (FCS)+penicillin/streptomycin into 96-well microtitre plates. The plates were placed in a cell culture incubator (37° C. in a humidified atmosphere of […]/5% CO2) overnight. The following day, serial dilutions of compounds, prepared in duplicates, were transferred onto the cell layers (controls without compound). The cells were cultivated for a further 72 h in the cell culture incubator. 20 μL of Alamar Blue™ (Serotec Ltd, Dusseldorf, Germany) was added to each well and the plates incubated for 7 h in the cell culture incubator. Fluorescence (extinction wavelength of 544 nm and emission at 590 nm) was then measured and the normalized data fitted by iterative calculation with a sigmoidal curve analysis program (Graph Pad Prism) with a variable Hill slope to determine the EC50 values.
On the technique in general: Resazurin is reduced to fluorescent resorufin, in cell work by metabolically active cells.

A further assay deals with T2, MAP2K1 (MEK1) (Homo sapiens, UniProt Q02750).
T2 construct: purchased Life Technologies PV 3303
In words: Z'-LYTE kinase selectivity assay MAP2K1. The assay is classed as biochemical.
Excerpt: as §1, §2, §3, §4
After the 1 hour Kinase Reaction incubation, 5 μL of a 1:1024 dilution of Development Reagent A is added.

Another assay has as its target T3, NEK2 (Homo sapiens, UniProt P51955).
T3 construct: purchased Life Technologies PV 3360
T3 sequence (P51955 1-445): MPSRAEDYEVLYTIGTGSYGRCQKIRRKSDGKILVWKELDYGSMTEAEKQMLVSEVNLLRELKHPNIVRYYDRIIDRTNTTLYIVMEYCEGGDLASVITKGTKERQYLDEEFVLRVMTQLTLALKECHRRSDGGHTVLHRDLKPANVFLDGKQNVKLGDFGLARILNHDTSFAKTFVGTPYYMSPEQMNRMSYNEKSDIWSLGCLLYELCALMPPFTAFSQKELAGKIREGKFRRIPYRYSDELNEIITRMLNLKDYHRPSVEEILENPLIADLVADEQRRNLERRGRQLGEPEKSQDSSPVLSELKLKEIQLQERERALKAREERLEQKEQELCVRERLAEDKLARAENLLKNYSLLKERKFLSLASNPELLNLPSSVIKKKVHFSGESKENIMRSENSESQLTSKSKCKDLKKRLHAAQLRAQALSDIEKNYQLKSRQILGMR
Description: Z'-LYTE kinase selectivity assay NEK2. It counts as biochemical.
Excerpt: as §1, §2, §3, §4
The 2×NEK2 (# PV 3360)/Ser/Thr 07 (Z′-LYTE® Kinase Assay Kit—Ser/Thr 7 Peptide, # PV 3180) mixture is prepared in 50 mM HEPES pH 7.5, 0.01% BRIJ-35, 10 mM MgCl2, 1 mM EGTA. The final 10 μL Kinase Reaction consists of 0.5-5.4 ng NEK2 and 2 μM Ser/Thr 07 in 50 mM HEPES pH 7.5, 0.01% BRIJ-35, 10 mM MgCl2, 1 mM EGTA. After the 1 hour Kinase Reaction incubation, 5 μL of a 1:65000 dilution of Development Reagent A is added.

Another assay concerns the target T4, CDK2/cyclin A (Homo sapiens, UniProt P24941).
T4 construct: purchased Life Technologies PV 3267
Description: Z'-LYTE kinase selectivity assay CDK2/cyclin A. The settings on record: read-out: CDK2/CYCLINA % inhibition. The assay is classed as biochemical.
Excerpt: as §1, §2, §3, §4
The 2×CDK2/cyclin A (# PV 3267)/Ser/Thr 12 (Z′-LYTE® Kinase Assay Kit—Ser/Thr 12 Peptide, # PV 3673) mixture is prepared in 50 mM HEPES pH 7.5, 0.01% BRIJ-35, 10 mM MgCl2, 1 mM EGTA. The final 10 μL Kinase Reaction consists of 1.22-10.3 ng CDK2/cyclin A and 2 μM Ser/Thr 12 in 50 mM HEPES pH 7.5, 0.01% BRIJ-35, 10 mM MgCl2. 1 mM EGTA. After the 1 hour Kinase Reaction incubation, 5 μL of a 1:4096 dilution of Development Reagent A is added.

T1 sequence (P00533 25-1210): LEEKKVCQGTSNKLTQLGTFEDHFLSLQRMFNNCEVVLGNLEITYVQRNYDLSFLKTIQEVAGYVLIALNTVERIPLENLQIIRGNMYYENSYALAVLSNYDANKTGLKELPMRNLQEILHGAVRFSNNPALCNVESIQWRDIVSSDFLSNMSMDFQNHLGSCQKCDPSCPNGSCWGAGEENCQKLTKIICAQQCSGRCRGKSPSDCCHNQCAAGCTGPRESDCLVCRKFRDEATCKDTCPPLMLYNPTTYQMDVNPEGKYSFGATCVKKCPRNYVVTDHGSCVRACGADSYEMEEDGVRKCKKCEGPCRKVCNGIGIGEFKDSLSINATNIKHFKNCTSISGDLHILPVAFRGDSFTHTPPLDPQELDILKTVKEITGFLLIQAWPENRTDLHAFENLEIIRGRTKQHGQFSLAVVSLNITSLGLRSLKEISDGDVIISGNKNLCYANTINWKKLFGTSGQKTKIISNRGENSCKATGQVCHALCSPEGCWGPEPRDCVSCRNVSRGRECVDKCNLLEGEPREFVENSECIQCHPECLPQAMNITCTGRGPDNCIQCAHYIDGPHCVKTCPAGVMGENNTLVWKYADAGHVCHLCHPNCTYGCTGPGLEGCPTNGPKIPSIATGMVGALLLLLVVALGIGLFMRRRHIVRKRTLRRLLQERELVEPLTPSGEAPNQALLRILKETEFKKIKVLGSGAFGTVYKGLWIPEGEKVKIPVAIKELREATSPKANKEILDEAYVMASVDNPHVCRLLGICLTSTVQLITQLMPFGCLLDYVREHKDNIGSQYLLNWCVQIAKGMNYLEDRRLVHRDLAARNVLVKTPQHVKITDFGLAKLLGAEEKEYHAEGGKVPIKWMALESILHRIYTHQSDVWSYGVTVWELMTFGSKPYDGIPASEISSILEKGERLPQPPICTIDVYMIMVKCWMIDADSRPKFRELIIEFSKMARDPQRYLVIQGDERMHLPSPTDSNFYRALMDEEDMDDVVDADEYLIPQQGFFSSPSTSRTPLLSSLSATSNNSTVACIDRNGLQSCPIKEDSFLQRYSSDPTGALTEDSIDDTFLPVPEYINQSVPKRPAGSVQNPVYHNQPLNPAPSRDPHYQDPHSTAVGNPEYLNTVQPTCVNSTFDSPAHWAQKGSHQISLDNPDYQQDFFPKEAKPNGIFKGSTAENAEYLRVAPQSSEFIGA
T2 sequence (Q02750 whole entry): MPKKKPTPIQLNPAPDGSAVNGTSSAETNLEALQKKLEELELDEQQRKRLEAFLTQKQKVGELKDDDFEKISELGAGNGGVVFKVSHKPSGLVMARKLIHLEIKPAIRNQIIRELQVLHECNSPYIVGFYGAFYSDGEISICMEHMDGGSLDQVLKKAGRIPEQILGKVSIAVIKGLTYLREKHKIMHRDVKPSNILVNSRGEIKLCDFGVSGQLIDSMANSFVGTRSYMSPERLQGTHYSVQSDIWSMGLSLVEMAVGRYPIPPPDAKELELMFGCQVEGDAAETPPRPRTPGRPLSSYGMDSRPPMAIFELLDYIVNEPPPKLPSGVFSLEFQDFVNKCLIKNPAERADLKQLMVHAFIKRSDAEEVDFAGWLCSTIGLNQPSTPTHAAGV

With `C[C@@H]1Cc2nn(C)c(-c3ccccc3)c2-c2nc(Nc3ccn(CCN4CCN(C)CC4)n3)ncc21` [Compound I-1], the inhibition at 1 µM against EGFR (ErbB1) is 65%; at MAP2K1 (MEK1), 34%; on NEK2, 15%; on CDK2/cyclin A it was 72%. Besides, the EC50 in assay [1] was over 2.5 µM.
Take `COCCN1CCN(CCn2ccc(Nc3ncc4c(n3)-c3c(nn(C)c3-c3ccccc3)C[C@H]4C)n2)CC1` [Compound I-11]: the inhibition at 1 µM at EGFR (ErbB1) came to 53%; on MAP2K1 (MEK1) it was 39%; against NEK2, 24%; on CDK2/cyclin A, 53%. In assay [1], the EC50 was over 2.5 µM.
Regarding `C[C@@H]1Cc2nn(C)c(-c3ccccc3)c2-c2nc(Nc3ccn(CCN4CCOCC4)n3)ncc21` [Compound I-2], the inhibition at 1 µM was found to be 68% against EGFR (ErbB1), 58% on MAP2K1 (MEK1), 25% against NEK2 and 56% on CDK2/cyclin A. In assay [1], this compound came in with an EC50 of over 2.5 µM.
The corresponding values for `C[C@@H]1Cc2nn(C)c(-c3ccccc3)c2-c2nc(Nc3ccn(CCN4CCN(CC(C)(C)O)CC4)n3)ncc21` [Compound I-3] are 72%, 50%, 29%, 66% and 2 µM.
With `C[C@@H]1Cc2nn(C)c(-c3ccccc3)c2-c2nc(Nc3ccn(CCN4CCN(CC5CCCO5)CC4)n3)ncc21` (some centres unmarked) [Compound I-9], the inhibition at 1 µM at EGFR (ErbB1) is 65%; at MAP2K1 (MEK1), 36%; on NEK2, 32%; at CDK2/cyclin A, 63%. Further, the half-maximal effective concentration (EC50) in assay [1] was over 2.5 µM.
Regarding `CC(O)CN1CCN(CCn2ccc(Nc3ncc4c(n3)-c3c(nn(C)c3-c3ccccc3)C[C@H]4C)n2)CC1` (some centres unmarked) [Compound I-7], the inhibition at 1 µM was found to be 77% at EGFR (ErbB1), 40% against MAP2K1 (MEK1), 32% on NEK2 and 74% on CDK2/cyclin A. The EC50 in assay [1] came to 1.83 µM.
Turning to `C[C@@H]1Cc2nn(C)c(-c3ccccc3)c2-c2nc(Nc3ccn(CCN4CCN(CC(=O)OC5CCOCC5)CC4)n3)ncc21` [Compound I-8], the inhibition at 1 µM on EGFR (ErbB1) came out at 56%; on MAP2K1 (MEK1), 48%; against NEK2, 22%; on CDK2/cyclin A, 49%. Further, the EC50 in assay [1] is over 2.5 µM.
